# Source: US20230121611A1, “Monohydrate Salt of Denatonium Acetate” (priority 2021, published 2023)
# “Also recorded” adds a separate entry of the source.
# How the values were obtained:
# [1] = Form stability of further XRPD patterns on storage or standing (reanalysis by XRPD); format: physicochemical; conditions: for XRPD form after standing on disc for 4 hours / XRPD form after standing overnight on disc: ambient lab conditions; for XRPD form after standing on disc for 4 hours: 4 hours on XRPD disc; for XRPD form after standing overnight on disc: room temperature
# From the text: (§1) It was then removed from the instrument and a portion immediately analyzed by XRPD.
# The frozen sample was lyophilized on the freeze dryer until all the solvent was removed. […] This was designated as Pattern 2.
# A summary of the characterization data for the samples of Pattern 5 can be found in Table 9.
# [2] = Storage under stress conditions (temperature / relative humidity); format: physicochemical; conditions: for UPLC purity after storage: input purity 99.5%
# From the text: It also lost mass when taken to relative humidity levels of less than 10%.
# It also loses mass when taken to relative humidity levels of less than 10%.
# as §1
# [3] = Gravimetric Vapor Sorption (GVS) experiments; format: physicochemical
# Description: Several Gravimetric Vapor Sorption (GVS) experiments were carried out to investigate the behavior of DAM over a range of different relative humidity levels. […] This experiment used a similar method to GVS 1 without the steps involving 90% RH where the large mass changes were observed and equilibrium was not reached. […] Most of the mass change (1.3-1.4% increase) occurred between 0-10% RH.
# [4] = format: physicochemical
# Description: Next, methyl isobutyl ketone was added and then water. In some embodiments, a lower alkyl isobutyl ketone is used in place of methyl isobutyl ketone. In some embodiments, the lower alkyl is a C1-3 alkyl. In some embodiments, the lower alkyl is methyl or ethyl. The temperature was lowered to <10° C. The remaining solid was isolated and washed with methyl isobutyl ketone to produce the final DAM (denatonium acetate monohydrate).
smiles,measurement,setting,value
CC(=O)[O-].CC[N+](CC)(CC(=O)Nc1c(C)cccc1C)Cc1ccccc1.O [DAM Pattern 5],XRPD form after standing on disc for 4 hours,[1],Conversion to Pattern 1 by XRPD
same,XRPD form after standing on disc for 4 hours,[1]; listed as Pattern 5,readily convert to Pattern 1; also recorded: conversion to Pattern 1; also recorded: converted to Pattern 1; also recorded: reverted to Pattern 1
same,stability of the pattern,[1]; ambient laboratory conditions,metastable
same,XRPD form after storage in closed vial,"[1]; 6 weeks, listed as Pattern 5",converted to Pattern 1
same,XRPD form after standing overnight on disc,[1],Conversion to Pattern 1 by XRPD
same,XRPD form after standing overnight on disc,[1]; listed as Pattern 5,convert to Pattern 1; also recorded: reverted to Pattern 1
same,XRPD form under ambient laboratory conditions,[1]; within a few hours,converts to Pattern 1
"CC(=O)[O-].CC[N+](CC)(CC(=O)Nc1c(C)cccc1C)Cc1ccccc1 [DAM, denatonium acetate monohydrate]",XRPD form after storage at 0% RH,"[2]; 0% RH, open vial in GVS instrument, 2 days, acetate monohydrate",converted to Pattern 5; also recorded: consistent with Pattern 5; also recorded: change in form to Pattern 5
same,observation after storage,"[2]; 25° C., 96% RH, 5 days, acetate monohydrate",deliquesce; also recorded: Sample had deliquesced
same,XRPD after storage,"[2]; 25° C., 96% RH, 7 days",Amorphous
same,observation after storage,"[2]; 25° C., 96% RH, 7 days",deliquesced
same,UPLC purity after storage,"[2]; 25° C., 96% RH, 7 days",UPLC purity 98.9%
same,XRPD after storage,"[2]; 40° C., 75% RH, 7 days",Shows no change in form by XRPD after 7 days
same,UPLC purity after storage,"[2]; 40° C., 75% RH, 7 days",UPLC purity 99.4%
same,observation after storage,"[2]; 40° C., 75% RH, after 5 and 7 days",Remained a solid after 5 and 7 days.
same,mass change,"[3]; GVS 2, between 0-10% RH",1.4%
same,mass change,"[3]; GVS 3, between 0-10% RH",1.3-1.4%
same,sample appearance after GVS,[3]; after GVS 1 (40-90-0-90-0-40),sorption cycle. Sample had formed a solid mass with powdery
same,sample appearance after GVS,"[3]; after GVS 2 (40-80-0-80-0-40), acetate monohydrate",remained as a free-flowing powder; also recorded: Sample remained free flowing solid
same,sample appearance after GVS,"[3]; after GVS 3 (40-0-80-0-80-0-40), acetate monohydrate",remained as a free-flowing powder; also recorded: Sample remained free flowing solid
same,XRPD post GVS,"[3]; post GVS 1, 2, 3","Shows no change in form by XRPD post GVS 1, 2, 3"
same,XRPD post GVS,[3]; post GVS 2,consistent with Pattern 1
same,XRPD post GVS,[3]; post GVS 3,consistent with Pattern 1
same,hygroscopicity,"[3]; relative humidity levels above 80%, acetate monohydrate",ED21356-001-001-00 is very hygroscopic especially at levels
same,mass behaviour at low humidity,"[3]; relative humidity levels of less than 10%, acetate monohydrate",lost mass; also recorded: loses mass
CC(=O)[O-].CC[N+](CC)(CC(=O)Nc1c(C)cccc1C)Cc1ccccc1.O [DAM Pattern 2],XRPD form after storage in closed vial,[1]; 7 weeks,Conversion to Pattern 1 by XRPD
same,XRPD form after storage in closed vial,"[1]; 7 weeks, listed as Pattern 2",converted to Pattern 1; also recorded: consistent with Pattern 1
"CC(=O)[O-].CC[N+](CC)(CC(=O)Nc1c(C)cccc1C)Cc1ccccc1 [DAA, Denatonium Acetate, anhydrous]",degradation products,[4],"either (A) lidocaine and benzyl acetate or it degraded to (B) 2-(diethylamino)-3-phenyl-N-(2,6-dimethylphenylpropionamide"
CC(=O)[O-].CC[N+](CC)(CC(=O)Nc1c(C)cccc1C)Cc1ccccc1.O [DAM Pattern 4],XRPD form after storage in closed vial,[1]; 6 weeks,Conversion to Pattern 1 by XRPD
same,XRPD form after storage in closed vial,"[1]; 6 weeks, listed as Pattern 4",conversion to Pattern 1
